The source of these data is patent US6075120A (priority 1995, dated 2000).

Square brackets hold non-standard residues; d marks the D form. Peptide text beside a SMILES is read from it. * marks the point of attachment. X1 = CN1CC[C@]23c4c5ccc(O)c4O[C@H]2C(NCCSC2CC(=O)N(CCCCCCN4C(=O)CC(*)C4=O)C2=O)CC[C@@]3(O)[C@H]1C5; Hyp = O=C(O)[C@@H]1C[C@@H](O)CN1

Series [1] relates to mice injected in the hind limb foot pad with formalin. The series is described as follows: mouse formalin test (inflammatory and neurogenic pain, hind limb licking). The format is in vivo. The following applies: for narcotic / behavioral side effects observed in the formalin test: oxymorphone at highest doses 0.9 and 3.0 umoles/kg, CP-0494 over several hours. As for the experimental part:
In order to test the activity of these compounds in vivo, a model of inflammatory and neurogenic pain was used. This model measures the behavioral responses of mice injected in the hind limb foot pad with 50 ul of formalin. Control mice (open circles) show a characteristic bi-phasic response to the injected formalin wherein there is a short lasting initial response followed by a quiescent period which is then followed by a sustained period of hind limb licking. The licking behavior is interpreted to mean that the limb is irritated and painful. The greater the time spent licking, the more painful the stimulus.

For series [2], the target named is T1, BK2 -receptor (Rattus norvegicus, UniProt P25023).
T1 construct: BKAn activity (pA2) was assessed using the rat uterus preparation; from tissue; host or cells: rat uterus
T1 sequence (P25023 1-396): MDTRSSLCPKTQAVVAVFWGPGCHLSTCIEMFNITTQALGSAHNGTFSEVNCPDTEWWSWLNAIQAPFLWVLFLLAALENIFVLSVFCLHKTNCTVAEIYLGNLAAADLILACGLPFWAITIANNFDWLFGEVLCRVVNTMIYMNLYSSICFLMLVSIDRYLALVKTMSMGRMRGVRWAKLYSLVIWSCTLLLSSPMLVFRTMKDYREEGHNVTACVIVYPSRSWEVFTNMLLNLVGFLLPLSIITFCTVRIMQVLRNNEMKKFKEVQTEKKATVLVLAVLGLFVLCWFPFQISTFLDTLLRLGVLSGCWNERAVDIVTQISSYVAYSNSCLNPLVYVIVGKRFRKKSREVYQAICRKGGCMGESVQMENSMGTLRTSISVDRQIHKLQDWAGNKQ
The series is described as follows: rat uterus assay of bradykinin antagonist (BKAn) activity. The class given is cell-based. The following applies: bradykinin induced uterine contraction.

Series [3] relates to cyclooxygenase. Kind of series: rat lung parenchymal strips challenged with arachidonic acid. The format is cell-based. The following applies: contraction in response to exogenously applied arachidonic acid. The source says:
As mentioned previously, for the COI to work it may need to be dissociated from the BKAn so as to allow for its intracellular penetration. Therefore, in order to evaluate the functional activity of a BKAn/COI heterodimer, CP-0460 was exposed to rat lung parenchymal strips which were then challenged with arachidonic acid. This tissue is known to contain both non-specific esterase activity as well as to convert arachidonic acid to thromboxane (via a cyclooxygenase dependent pathway) which is then ultimately responsible for the smooth muscle contraction observed in this assay.

Series [4] can be described thus: freshly obtained normal human plasma. The following applies: 37° C.
Series [5] deals with T2, purified human neutrophil elastase (HNE) (Homo sapiens, UniProt P08246).
T2 sequence (P08246 30-247 limits assumed): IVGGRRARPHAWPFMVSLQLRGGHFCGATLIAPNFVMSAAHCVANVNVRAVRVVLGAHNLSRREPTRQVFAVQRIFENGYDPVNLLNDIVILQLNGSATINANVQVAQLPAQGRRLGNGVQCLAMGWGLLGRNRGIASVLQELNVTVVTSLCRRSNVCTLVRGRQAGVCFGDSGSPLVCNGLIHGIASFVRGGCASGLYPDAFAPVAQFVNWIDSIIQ
Kind of series: neutrophil elastase inhibition with chromogenic substrate MOS-AAPV-pNA. The following applies: MOS-AAPV-pNA 0.5 mM, HNE 10-20 nM, pH 7.5, 25 C; read-out: Ki^ss (HNE). The class given is biochemical.

With `CC(C)C[C@H](NC(=O)[C@@H](Cc1ccccc1)NC(=O)[C@H](CSC1CC(=O)N(CCCCCCN2C(=O)CC(SCCNC3CC[C@@]4(O)[C@H]5Cc6ccc(O)c7c6[C@@]4(CCN5C)[C@H]3O7)C2=O)C1=O)NC(=O)[C@H](Cc1ccccc1)NC(=O)CNC(=O)[C@@H]1C[C@@H](O)CN1C(=O)[C@@H]1CCCN1C(=O)[C@H](CCCNC(=N)N)NC(=O)[C@H](N)CCCNC(=N)N)C(=O)N[C@@H](CCCNC(=N)N)C(=O)O` (some centres unmarked) [CP-0494] (H-[dR]RP[Hyp]GFC(X1)[dF]LR-OH), the “narcotic / behavioral side effects observed in the formalin test” value in series [1] is reported as “no observable narcotic effects”.

As for `COc1ccc2c(c1)c(CC(=O)O)c(C)n2C(=O)c1ccc(Cl)cc1` [indomethacin], the “pA2 --Rat Uterus” value in series [2] was “no effect”. The “log dose ratio shift” value in series [3] amounted to 0.998±0.425. As for DR-R-P-J-G-F-C-DF-L-R, the cleaved bond entry in series [4] is on record as “Leu8-Arg9”. Turning to `CN1CC[C@]23c4c5ccc(O)c4O[C@H]2C(=O)CC[C@@]3(O)[C@H]1C5` [oxymorphone], in series [1] (50 ul formalin in hind limb foot pad), the “effect on licking behavior in both phases of the formalin test” value is “reduces both phases of the licking behavior”. Further, the “narcotic / behavioral side effects observed in the formalin test” value in series [1] was “significant behavioral obtundation resulting in catalepsy and frank respiratory depression”. Consider `CC(C)(C)c1ccc(C(C)(C)C(=O)Oc2ccc(S(=O)(=O)CCCC(=O)O)cc2)cc1` [CE-1218, 4-(3'-carboxy-propylsulfonyl)phenyl 4-tert-butylphenylisobutyrate], for which the Ki in series [5] worked out at 10.5 nM. In addition, in series [2], the “pA2 --Rat Uterus” value is “inactive”.

By Ki is commonly meant the dissociation constant of the complex between target and ligand, obtained from inhibition or displacement.
